Measurements as given in patent US9765049B2, “N-cycloalkyl-N-[(fusedphenyl)methylene]-(thio)carboxamide derivatives” (BAYER CROPSCIENCE AG, priority 2013, dated 2017).
Read-outs that look alike come from different tables or passages of the source.

How the values were obtained:
[1] = log P by HPLC on reversed-phase column (C 18), EEC Directive 79/831 Annex V.A8; format: physicochemical; conditions: for logP: Table 1, 40° C.
Method: In table 1, the log P values were determined in accordance with EEC Directive 79/831 Annex V.A8 by HPLC (High Performance Liquid Chromatography) on a reversed-phase column (C 18), using the method described below: Temperature: 40° C.; Mobile phases: 0.1% aqueous formic acid and acetonitrile; linear gradient from 10% acetonitrile to 90% acetonitrile. Calibration was carried out using unbranched alkan-2-ones (comprising 3 to 16 carbon atoms) with known log P values (determination of the log P values by the retention times using linear interpolation between two successive alkanones). lambda-max-values were determined using UV-spectra from 200 nm to 400 nm and the peak values of the chromatographic signals.

Sphaerotheca fuliginea = assay: In vivo preventive test on Sphaerotheca fuliginea (powdery mildew on cucurbits); conditions: 500 ppm, gherkin plants, preventive spray, evaluated 15 days after inoculation
Method: (§1) Example F: In Vivo Preventive Test on Sphaerotheca fuliginea (Powdery Mildew on Cucurbits) [table] The active ingredients are made soluble and homogenized in a mixture of Dimethyl sulfoxide/Acetone/Tween®80 and then diluted in water to the desired concentration. The young plants of gherkin are treated by spraying the active ingredient prepared as described above. Control plants are treated only with an aqueous solution of Acetone/Dimethyl sulfoxide/Tween® 80. After 24 hours, the plants are contaminated by spraying the leaves with an aqueous suspension of Sphaerotheca fuliginea spores.

Puccinia recondita = assay: In vivo preventive test on Puccinia recondita (brown rust on wheat); conditions: 500 ppm, wheat plants, preventive spray, evaluated 11 days after inoculation
Method: as §1, with “C:” for “F:”, “Puccinia recondita (Brown Rust” for “Sphaerotheca fuliginea (Powdery Mildew”, “Wheat)” for “Cucurbits)”, “wheat” for “gherkin”, “Puccinia recondita” for “Sphaerotheca fuliginea”

Botrytis cinerea = assay: In vivo preventive test Botrytis cinerea (grey mould); conditions: gherkin plants
Method: as §1, with “B:” for “F:”, “Botrytis cinerea (Grey Mould)” for “on Sphaerotheca fuliginea (Powdery Mildew on Cucurbits)”, “Botrytis cinerea” for “Sphaerotheca fuliginea”, “spores. The contaminated gherkin plants are incubated for 4 to 5 days at 17° C. and at 90% relative humidity.” for “spores.”

Septoria tritici = assay: In vivo preventive test on Septoria tritici (wheat); conditions: 500 ppm, wheat plants, preventive spray, evaluated 24 days after inoculation
Method: as §1, with “E:” for “F:”, “Septoria tritici (Wheat)” for “Sphaerotheca fuliginea (Powdery Mildew on Cucurbits)”, “wheat” for “gherkin”, “Septoria tritici” for “Sphaerotheca fuliginea”, “spores. The contaminated wheat plants are incubated for 72 hours at 18° C. and at 100% relative humidity and then for 21 days at 20° C. and at 90% relative humidity.” for “spores.”

Uromyces appendiculatus = assay: In vivo preventive test on Uromyces appendiculatus (bean rust); conditions: Table G; 500 ppm, bean plants, preventive spray, evaluated 11 days after inoculation
Method: as §1, with “G:” for “F:”, “Uromyces appendiculatus (Bean Rust)” for “Sphaerotheca fuliginea (Powdery Mildew on Cucurbits)”, “bean” for “gherkin”, “Uromyces appendiculatus” for “Sphaerotheca fuliginea”

Pyrenophora teres = assay: In vivo preventive test on Pyrenophora teres (net blotch on barley); conditions: 500 ppm, barley plants, preventive spray, evaluated 14 days after inoculation
Method: as §1, with “D:” for “F:”, “Pyrenophora teres (Net Blotch” for “Sphaerotheca fuliginea (Powdery Mildew”, “Barley)” for “Cucurbits)”, “barley” for “gherkin”, “Pyrenophora teres” for “Sphaerotheca fuliginea”

[2] = system: Fusarium nivale (var. majus); assay: Efficacy against Fusarium nivale (var. majus) (wheat), curative test; format: in vivo; conditions: evaluated 5 days after inoculation
Method: Example I: Efficacy Against Fusarium nivale (Var. Majus) (Wheat) [table] To produce a suitable preparation of active compound, 1 part by weight of active compound or active compound combination is mixed with the stated amounts of solvent and emulsifier, and the concentrate is diluted with water to the desired concentration. […] After the spray coating has dried on, the plants remain in a greenhouse under translucent incubation cloches at a temperature of approximately 10° C. and a relative atmospheric humidity of approximately 100%.

[3] = HPLC, 0.1% aqueous formic acid and acetonitrile
[4] = Table B, 500 ppm, preventive spray, evaluated 4 to 5 days after inoculation
[5] = reversed-phase HPLC column (C 18), Table 3 (aldehydes of formula IV), HPLC, 0.1% aqueous formic acid and acetonitrile, read-out: logP
[6] = reversed-phase HPLC column (C 18), Table 2 (amines of formula IIa), HPLC, 0.1% aqueous formic acid and acetonitrile, read-out: logP

Work on Cn1cc(C(=O)N(Cc2cccc3c2C2C=CC3O2)C2CC2)c(C(F)F)n1 (stereo not shown) [I.15] yielded a logP [1, 3] of 2.05 and an Efficacy (Sphaerotheca fuliginea) of 72%.
Work on Cn1cc(C(=S)N(Cc2cccc3c2C2CCC3C2=C(Cl)Cl)C2CC2)c(C(F)F)n1 (stereo not shown) [I.10] yielded an Efficacy (Puccinia recondita) of 88%, an Efficacy (Botrytis cinerea; [4]) of 100% and a logP [1, 3] of 4.83. The Efficacy (Sphaerotheca fuliginea) was 100% and the Efficacy (Septoria tritici) was 100%.
Work on O=Cc1cccc2c1C1CCC2C1=C(Cl)Cl (stereo not shown) [IV.3, 9-(dichloromethylene)-1,2,3,4-tetrahydro-1,4-methanonaphthalene-5-carbaldehyde] yielded a chromatographic logP [1] of 4.09.
Cn1nc(C(F)F)c(C(=S)N(Cc2cccc3c2C2CCC3C2=C(Cl)Cl)C2CC2)c1Cl (stereo not shown) [I.09] gave an Efficacy (Uromyces appendiculatus) of 78%, a logP [1, 3] of 5.39 and an Efficacy (Sphaerotheca fuliginea) of 98%.
In the case of ClC(Cl)=C1C2CCC1c1c(CNC3CC3)cccc12 (stereo not shown) [IIa.3, N-{[9-(dichloromethylene)-1,2,3,4-tetrahydro-1,4-methanonaphthalen-5-yl]methyl}-cyclopropanamine], the chromatographic logP [1] is reported as 1.95.
Cn1nc(C(F)F)c(C(=O)N(Cc2cccc3c2C2C=CC3O2)C2CC2)c1Cl (stereo not shown) [I.13] showed a logP [1, 3] of 2.42.
In the case of O=Cc1cccc2c1C1C=CC2C1 (stereo not shown) [IV.2, 1,4-dihydro-1,4-methanonaphthalene-5-carbaldehyde], the chromatographic logP [1, 5] is reported as 2.73.
Work on C1=CC2OC1c1cccc(CNC3CC3)c12 (stereo not shown) [IIa.5, N-(1,4-dihydro-1,4-epoxynaphthalen-5-ylmethyl)cyclopropanamine] yielded a chromatographic logP [1, 6] of 0.13.
Compound Cn1nc(C(F)F)c(C(=O)N(Cc2cccc3c2C2CCC3O2)C2CC2)c1F (stereo not shown) [I.12] has an Efficacy (Puccinia recondita) of 89%, an Efficacy (Botrytis cinerea; [4]) of 99% and a logP [1, 3] of 2.55. It also gave an Efficacy (Sphaerotheca fuliginea) of 100% and an Efficacy (Septoria tritici) of 100%.
Compound O=Cc1cccc2c1C1CCC2C1 (stereo not shown) [IV.1, 1,2,3,4-tetrahydro-1,4-methanonaphthalene-5-carbaldehyde] has a chromatographic logP [1, 5] of 3.13.
Compound Cn1nc(C(F)F)c(C(=O)N(Cc2cccc3c2C2C=CC3C2)C2CC2)c1Cl (stereo not shown) [I.05] has an Efficacy (Puccinia recondita) of 94%, a logP [1, 3] of 3.70 and an Efficacy (Sphaerotheca fuliginea) of 72%. For the same compound, the Efficacy (Septoria tritici) was 81%.
With O=Cc1cccc2c1C1C=CC2O1 (stereo not shown) [IV.5, 1,4-dihydro-1,4-epoxynaphthalene-5-carbaldehyde] the chromatographic logP [1, 5] was 1.5.
c1cc(CNC2CC2)c2c(c1)C1CCC2O1 (stereo not shown) [IIa.4, N-(1,2,3,4-tetrahydro-1,4-epoxynaphthalen-5-ylmethyl)cyclopropanamine] showed a chromatographic logP [1, 6] of 0.45.
With O=Cc1cccc2c1C1CCC2O1 (stereo not shown) [IV.4, 1,2,3,4-tetrahydro-1,4-epoxynaphthalene-5-carbaldehyde] the chromatographic logP [1, 5] was 1.66.
With Cc1nn(C)c(F)c1C(=O)N(Cc1cccc2c1CCCC2)C1CC1 [CMP2, N-cyclopropyl-5-fluoro-1,3-dimethyl-N-(5,6,7,8-tetrahydronaphthalen-1-ylmethyl)-1H-pyrazole-4-carboxamide, reference compound] the Efficacy (Botrytis cinerea; Table B2, dose 100 ppm) was 0% and the Efficacy (Botrytis cinerea; Table B2, dose 500 ppm) was 35%.
Cn1nc(C(F)F)c(C(=S)N(Cc2cccc3c2C2C=CC3O2)C2CC2)c1Cl (stereo not shown) [I.20] gave a logP [1, 3] of 3.17.
For Cn1cc(C(=O)N(Cc2cccc3c2C2C=CC3C2)C2CC2)c(C(F)F)n1 (stereo not shown) [I.03], the Efficacy (Pyrenophora teres) was 88%, the logP [1, 3] was 3.19 and the Efficacy (Sphaerotheca fuliginea) was 98%.
With C1=CC2CC1c1cccc(CNC3CC3)c12 (stereo not shown) [IIa.2, N-(1,4-dihydro-1,4-methanonaphthalen-5-ylmethyl)cyclopropanamine] the chromatographic logP [1, 6] was 1.13.
Work on Cc1nn(C)c(F)c1C(=O)N(C1CC1)C(C)c1cccc2c1CCC(C)(C)C2 (stereo not shown) [CMP5, N-cyclopropyl-N-[1-(6,6-dimethyl-5,6,7,8-tetrahydronaphthalen-1-yl)ethyl]-5-fluoro-1,3-dimethyl-1H-pyrazole-4-carboxamide] yielded an Efficacy ([2]; dose 250 ppm) of 44% and an Efficacy ([2]; dose 500 ppm) of 56%.
Cn1nc(C(F)F)c(C(=O)N(Cc2cccc3c2C2CCC3C2=C(Cl)Cl)C2CC2)c1Cl (stereo not shown) [I.06] gave an Efficacy (Pyrenophora teres) of 71%, a logP [1, 3] of 4.66 and an Efficacy (Sphaerotheca fuliginea) of 95%. For the same compound, the Efficacy (Septoria tritici) was 71%.
Work on Cc1cc(C(=O)N(Cc2cccc3c2C2CCC3O2)C2CC2)c(C)o1 (stereo not shown) [I.22] yielded a logP [1, 3] of 3.04.
For O=C(c1ccsc1Br)N(Cc1cccc2c1C1C=CC2O1)C1CC1 (stereo not shown) [I.21], the logP [1, 3] was 2.96.
With Cn1nc(C(F)F)c(C(=O)N(Cc2cccc3ccccc23)C2CC2)c1F [CMP1, N-cyclopropyl-3-(difluoromethyl)-5-fluoro-1-methyl-N-(1-naphthylmethyl)-1H-pyrazole-4-carboxamide, reference compound] the Efficacy (Botrytis cinerea; Table B2, dose 100 ppm) was 10% and the Efficacy (Botrytis cinerea; Table B2, dose 500 ppm) was 70%.
Work on Cn1nc(C(F)F)c(C(=O)N(Cc2cccc3c2C2C=CC3O2)C2CC2)c1F (stereo not shown) [I.14] yielded an Efficacy (Pyrenophora teres) of 75%, a logP [1, 3] of 2.31 and an Efficacy (Sphaerotheca fuliginea) of 94%. The Efficacy (Septoria tritici) was 98%.
With Cn1cc(C(=O)N(Cc2cccc3c2CCCC3)C2CC2)c(C(F)F)n1 [CMP3, N-cyclopropyl-3-(difluoromethyl)-1-methyl-N-(5,6,7,8-tetrahydronaphthalen-1-ylmethyl)-1H-pyrazole-4-carboxamide, reference compound] the Efficacy (Botrytis cinerea; Table B2, dose 100 ppm) was 0% and the Efficacy (Botrytis cinerea; Table B2, dose 500 ppm) was 0%.
For Cc1nc(C(F)F)c(C(=O)N(Cc2cccc3c2C2C=CC3O2)C2CC2)s1 (stereo not shown) [I.18], the logP [1, 3] was 2.51.
With Cn1cc(C(=O)N(Cc2cccc3c2C2C=CC3O2)C2CC2)c(C(F)(F)F)c1 (stereo not shown) [I.17] the logP [1, 3] was 2.70.
Compound Cc1cc(C(=O)N(Cc2cccc3c2C2C=CC3O2)C2CC2)c(C)o1 (stereo not shown) [I.16] has a logP [1, 3] of 2.82 and an Efficacy (Septoria tritici) of 81%.
CC1CCc2cccc(C(C)N(C(=O)c3c(C(F)F)nn(C)c3F)C3CC3)c2C1 (stereo not shown) [50 from WO-2010/130767, N-cyclopropyl-3-(difluoromethyl)-5-fluoro-1-methyl-N-[1-(7-methyl-5,6,7,8-tetrahydronaphthalen-1-yl)ethyl]-1H-pyrazole-4-carboxamide] gave an Efficacy ([2]; dose 250 ppm) of 67% and an Efficacy ([2]; dose 500 ppm) of 67%.
Compound c1cc(CNC2CC2)c2c(c1)C1CCC2C1 (stereo not shown) [IIa.1, N-(1,2,3,4-tetrahydro-1,4-methanonaphthalen-5-ylmethyl)cyclopropanamine] has a chromatographic logP [1, 6] of 1.31.
Cc1nn(C)c(F)c1C(=O)N(C1CC1)C(C)c1cccc2c1CCCC2 (stereo not shown) [CMP4, N-cyclopropyl-5-fluoro-1,3-dimethyl-N-[1-(5,6,7,8-tetrahydronaphthalen-1-yl)ethyl]-1H-pyrazole-4-carboxamide] showed an Efficacy ([2]; dose 250 ppm) of 29% and an Efficacy ([2]; dose 500 ppm) of 57%.
With Cn1nc(C(F)F)c(C(=S)N(Cc2cccc3c2C2C=CC3O2)C2CC2)c1F (stereo not shown) [I.19] the logP [1, 3] was 3.04.
